Measurements from patent US5049372A, “Anticancer activities in a host by increasing blood and plasma adenosine 5'-triphosphate (ATP) levels” (priority 1988, dated 1991).
“Also recorded” adds a separate entry of the source.

Key:
[1] = system: RBC ATP pools; test: Stability of expanded RBC ATP pools in washed isolated RBCs in vitro after i.p. injection (Table 5); parameters: species or system mouse; settings: average of two experiments; for Medium (Hanks' BSS) [^3 H]ATP levels immediately after [^3 H]adenosine incorporation into isolated, washed RBCs (at time 0) / ATP levels in the medium (Hanks' BSS): time 0; for ATP levels in the medium (Hanks' BSS): bioluminometry; for RBC ATP pools (37° C.), 0 min / RBC ATP pools (37° C.), 120 min: washed RBCs in Hanks' BSS
Experimental: (§1) The mice are anesthetized with ether during the procedure. Plasma or Hanks' (Balanced Salt Solution) BSS media from incubated isolated RBCs (Red Blood Cells) are prepared by centrifugation of whole blood or RBCs in a Beckman microfuge (30 seconds at 8000 xg) and samples of 100 μl are added to 1 ml of ice-cold 7% trichloroacetic acid. Red blood cells are prepared by centrifugation of whole blood (1500 xg for 5 minutes at 4° C.) and removal of plasma and the buffy coat is followed by a wash of the pelleted RBCs (from 250 μl of whole blood) in 5 ml of ice-cold Hanks' BSS. After centrifugations, the RBCs pellet is resuspended in Hanks' BSS to yield a total volume with the original hematocrit (percent of RBCs volume in the whole blood). Aliquots of 20 μl of RBCs suspensions or whole blood are added to 1 ml of ice-cold 7% trichloroacetic acid. Extraction of acid-soluble nucleotides and determinations of ATP levels by luminometry followed procedures discussed hereinabove. Levels of [^3 H]ATP in whole blood, RBCs, plasma, or RBCs incubation media (Hanks' BSS) are determined after incorporation of 250 μCi of [^3 H]adenosine of specific radioactivity of 30 Ci/mmol (1 Ci=3.7×10^10 becquerels) into whole blood or RBC suspensions (250 μl total) followed by immediate trichloroacetic acid extractions as described above. Two dimensional thin layer chromatography on poly(ethylene)imine cellulose with an unlabeled ATP carrier is performed according to Bochner and Ames, J. Biol. Chem., 257, pp. 9759-9769, 1982). For the determination of whole blood or isolated RBC [^3 H]ATP pools, 10 μl of a 1 ml initial trichloroacetic acid extract are chromatographed. Determinations of [^3 H]ATP levels in blood plasma or RBCs incubation media are performed on 300 μl of an initial 1 ml trichloroacetic acid extract which are lyophilized and redissolved in 15 μl of water. After chromatography, the spots corresponding to the ATP carrier are cut, eluted with 0.5 ml of 4 N ammonium hydroxide, and radioactivity determined in 10 ml of scintillation fluid.
Two hour incubations of washed isolated RBCs containing normal or expanded ATP pools in Hanks' BSS result in relatively small decreases in RBC ATP pools with the expanded pools being maintained well above normal levels (Table 5). The expansions of RBC ATP pools after i.p. administration of AMP or ATP in vivo is presumably the result of their dephosphorylation followed by the RBCs uptake of the adenosine which is generated in situ.

[2] = ATP levels in mouse blood (total cellular) and plasma after i.p. injection (Table 3); type: in vivo; settings: for Blood ATP levels: total cellular
Experimental: The mice are anesthetized with ether during the procedure. The plasma is prepared by immediate centrifugation of the blood in a Beckman microfuge (30 sec at 8000 xg). Blood (20 μl) or plasma (100 μl) aliquots are added to 1 ml of cold 7% trichloroacetic acid. […] The determination of ATP levels in the extracts is performed by bioluminometry (luciferinluciferase) using a Turner Designs Bioluminescence Photometer.

[3] = system: RBC ATP pools; test: Expansion of RBC ATP pools and blood plasma ATP levels after i.p. injection (Table 4); type: in vivo, mouse; settings: for Plasma ATP levels / RBC ATP pools / Plasma [^3 ]ATP levels immediately after [^3 H]adenosine incorporation into whole blood: 5 hours after i.p. injection of 2 ml of 35 mM, CB6F1; for Plasma ATP levels / RBC ATP pools: bioluminometry, citrate-dextrose; for Plasma [^3 ]ATP levels immediately after [^3 H]adenosine incorporation into whole blood: radioactivity corrected by RBC specific radioactivity; for Duration of expansion of RBC ATP pools: after complete adsorption across the peritoneal membrane; for Time at which expansion of RBC ATP pools could be detected: after i.p. injection; for Increase in plasma (extracellular) ATP levels (in words): i.p. administration; for Expansion of RBC ATP pools (in words): i.p. injection, host animals
Experimental: as §1
Single intraperitoneal injections of 2 ml of 35 mM of AMP or ATP in saline at pH 6.2 into CB6F1 mice result in expansions of RBC ATP pools in these mice (see Table 4).
The expansions of RBC ATP pools after i.p. injections of AMP or ATP could be detected 30 minutes after injections and lasted for approximately 6-8 hours after the nucleotides were completely adsorbed across the peritoneal membrane and into the systemic circulation. The rates of adsorption of intraperitoneal AMP or ATP solutions varied in different strains of mice. […] These plasma ATP levels originate in RBCs since they can be metabolically labeled by [^3 H]adenosine. Plasma ATP pools which originate in the dense granules of blood platelets would not be radioactively labeled under the same conditions (e.g., Holmsen, 1985, Seminars in Hematol, 22, 219-240). The experiments described in Tables 4 and 5 include uptake of [^3 H]adenosine by whole blood (Table 4) or isolated washed RBCs (Table 5 below). In both cases, all the extracellular ATP, determined seconds after the uptake of [^3 H]adenosine, is metabolically labeled.

[4] = Host toxicity (deaths, body weight) in treated mice; type: in vivo, mouse; settings: for Deaths: i.p. injections of adenine nucleotides
Experimental: Tumor cells are removed from subconfluent cultures by a mild trypsin-EDTA treatment, the cell pellet is washed once with MEM without serum and the cells are suspended at the desired cell numbers in PBS (phosphate-bufferedsaline, 8 g NaCl, 0.2 g KCl, 1.15 g Na2 HPO4.7H2 O, and 0.2 g KH2 PO4 per liter). Cell suspensions are shown to be at least 90% viable by trypan blue exclusion. Mice are injected subcutaneously in the right hind footpad with tumor cells suspended in 50 μl of PBS. The regular protocol (unless otherwise stated) consists of daily i.p. injections of 1 ml of 0.85% NaCl solution or 1 ml of 50 mM of AMP, ADP, or ATP in 0.85% NaCl (from stock solutions adjusted to pH 6.2) starting one day after tumor inoculation and given for ten consecutive days.
Injections are administered with 30 gauge needles and the mice are lightly anesthetized with ether. The mice are weighed before the start of treatment and once a week during and after treatment. After the tumors become palpable, tumor sizes are determined every three days. The animals are sacrificed, tumors are excised and weighed before they reach 10% of the animals' weight.

[5] = CB6F1, 1 hour after i.p. 1 ml of 50 mM
[6] = CB6F1, 5 hours after i.p. 1 ml of 50 mM
[7] = athymic nu/nu, 1 hour after i.p. 1 ml of 50 mM
[8] = athymic nu/nu, 4 hours after i.p. 1 ml of 50 mM

## Nc1ncnc2c1ncn2[C@@H]1O[C@H](COP(=O)(O)O)[C@@H](O)[C@H]1O [AMP, adenosine 5'-monophosphate]
[1]
  Medium (Hanks' BSS) [^3 H]ATP levels immediately after [^3 H]adenosine incorporation into isolated, washed RBCs (at time 0): 1.81 µM
  ATP levels in the medium (Hanks' BSS): 2.42 µM
  RBC ATP pools (37° C.), 0 min: 1.01 mM
  RBC ATP pools (37° C.), 120 min: 0.86 mM
[2]; [5]
  Plasma ATP levels: 1.75 ± 0.36 µM
  Blood ATP levels: 1.23 ± 0.21 mM
[2]; [6]
  Plasma ATP levels: 1.69 ± 0.19 µM
  Blood ATP levels: 1.36 ± 0.24 mM
[2]; [7]
  Plasma ATP levels: 2.17 ± 0.36 µM
  Blood ATP levels: 1.87 ± 0.46 mM
[2]; [8]
  Plasma ATP levels: 1.97 ± 0.41 µM
  Blood ATP levels: 2.35 ± 0.67 mM
[3]
  Plasma ATP levels: 3.10 ± 0.96 µM
  RBC ATP pools: 1.78 ± 0.32 mM
  Plasma [^3 ]ATP levels immediately after [^3 H]adenosine incorporation into whole blood: 2.86 ± 1.06 µM
  Duration of expansion of RBC ATP pools: 6 to 8 h
  Time at which expansion of RBC ATP pools could be detected: 30 min
  Increase in plasma (extracellular) ATP levels (in words): markedly increased; also recorded: several fold increases in plasma (extracellular) ATP levels
  Expansion of RBC ATP pools (in words): yielded expansions of red blood cell (RBC) ATP pools
[4]; host animals
  Side-effects relative to ATP: less side-effects than ATP
[4]
  Deaths: did not cause any deaths

## Nc1ncnc2c1ncn2[C@@H]1O[C@H](COP(=O)(O)OP(=O)(O)OP(=O)(O)O)[C@@H](O)[C@H]1O [ATP, adenosine 5'-triphosphate]
[1]
  Medium (Hanks' BSS) [^3 H]ATP levels immediately after [^3 H]adenosine incorporation into isolated, washed RBCs (at time 0): 4.93 µM
  ATP levels in the medium (Hanks' BSS): 4.08 µM
  RBC ATP pools (37° C.), 0 min: 2.52 mM
  RBC ATP pools (37° C.), 120 min: 1.76 mM
[2]; [5]
  Plasma ATP levels: 3.99 ± 0.81 µM
  Blood ATP levels: 2.53 ± 0.61 mM
[2]; [6]
  Plasma ATP levels: 5.14 ± 0.71 µM
  Blood ATP levels: 3.47 ± 0.57 mM
[2]; [7]
  Plasma ATP levels: 2.93 ± 0.69 µM
  Blood ATP levels: 2.71 ± 0.54 mM
[2]; [8]
  Plasma ATP levels: 3.01 ± 0.76 µM
  Blood ATP levels: 4.26 ± 0.79 mM
[3]
  Plasma ATP levels: 4.94 ± 1.17 µM
  RBC ATP pools: 2.49 ± 0.42 mM
  Plasma [^3 ]ATP levels immediately after [^3 H]adenosine incorporation into whole blood: 5.75 ± 2.05 µM
  Duration of expansion of RBC ATP pools: 6 to 8 h
  Time at which expansion of RBC ATP pools could be detected: 30 min
  Increase in plasma (extracellular) ATP levels (in words): markedly increased; also recorded: several fold increases in plasma (extracellular) ATP levels
  Expansion of RBC ATP pools (in words): yielded expansions of red blood cell (RBC) ATP pools
[4]
  Deaths: Occasionally, an animal treated with ATP or ADP would die a few hours after injection
